Assay results from PubChem BioAssay (NCI).
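These data come from cells grown in 96-well plates and exposed to compound for 48 hours at five concentrations. At the GI50, growth is halved. TGI denotes the concentration required for complete inhibition of growth.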

Experiments:
Assay in all cases: DTP human tumour cell line panel, 48 h
786-0 renal = system: 786-0 renal
A498 renal = system: A498 renal
A549 NSCLC = system: A549 NSCLC
ACHN renal = system: ACHN renal
BT-549 breast = system: BT-549 breast
CAKI-1 renal = system: CAKI-1 renal
CCRF-CEM leukemia = system: CCRF-CEM leukemia
COLO 205 colon = system: COLO 205 colon
DU-145 prostate = system: DU-145 prostate
EKVX NSCLC = system: EKVX NSCLC
HCC-2998 colon = system: HCC-2998 colon
HCT-116 colon = system: HCT-116 colon
HCT-15 colon = system: HCT-15 colon
HL-60(TB) leukemia = system: HL-60(TB) leukemia
HOP-62 NSCLC = system: HOP-62 NSCLC
HOP-92 NSCLC = system: HOP-92 NSCLC
HS 578T breast = system: HS 578T breast
HT29 colon = system: HT29 colon
IGROV1 ovarian = system: IGROV1 ovarian
K-562 leukemia = system: K-562 leukemia
KM12 colon = system: KM12 colon
LOX IMVI melanoma = system: LOX IMVI melanoma
M14 melanoma = system: M14 melanoma
MALME-3M melanoma = system: MALME-3M melanoma
MCF7 breast = system: MCF7 breast
MDA-MB-231 breast = system: MDA-MB-231 breast
MDA-MB-435 = system: MDA-MB-435
MDA-N = system: MDA-N
MOLT-4 leukemia = system: MOLT-4 leukemia
NCI-H23 lung = system: NCI-H23 lung
NCI-H460 lung = system: NCI-H460 lung
NCI-H522 lung = system: NCI-H522 lung
NCI/ADR-RES ovarian = system: NCI/ADR-RES ovarian
OVCAR-3 ovarian = system: OVCAR-3 ovarian
OVCAR-4 ovarian = system: OVCAR-4 ovarian
OVCAR-5 ovarian = system: OVCAR-5 ovarian
OVCAR-8 ovarian = system: OVCAR-8 ovarian
PC-3 prostate = system: PC-3 prostate
RPMI-8226 leukemia = system: RPMI-8226 leukemia
RXF 393 renal = system: RXF 393 renal
SF-268 CNS = system: SF-268 CNS
SF-295 CNS = system: SF-295 CNS
SF-539 CNS = system: SF-539 CNS
SK-MEL-28 melanoma = system: SK-MEL-28 melanoma
SK-MEL-5 melanoma = system: SK-MEL-5 melanoma
SK-OV-3 ovarian = system: SK-OV-3 ovarian
SN12C renal = system: SN12C renal
SNB-19 CNS = system: SNB-19 CNS
SNB-75 CNS = system: SNB-75 CNS
SR leukemia = system: SR leukemia
SW-620 colon = system: SW-620 colon
T-47D breast = system: T-47D breast
TK-10 renal = system: TK-10 renal
U251 CNS = system: U251 CNS
UACC-257 melanoma = system: UACC-257 melanoma
UACC-62 melanoma = system: UACC-62 melanoma
UO-31 renal = system: UO-31 renal

COC1=C(OC)[C@]2(OC)c3c(O)c(OC)c4c(c3O[C@@]23O[C@@H](c2ccccc2)CC=C3C1=O)[C@@H](OC)C[C@H](c1ccccc1)O4
GI50 (786-0 renal): 292 nM
TGI (786-0 renal): 801 nM
GI50 (A498 renal): 1510 nM
TGI (A498 renal): 2940 nM
GI50 (A549 NSCLC): 2210 nM
TGI (A549 NSCLC): 5020 nM
GI50 (ACHN renal): 605 nM
TGI (ACHN renal): 1810 nM
GI50 (BT-549 breast): 461 nM
TGI (BT-549 breast): 1560 nM
GI50 (CAKI-1 renal): 510 nM
TGI (CAKI-1 renal): 1880 nM
GI50 (CCRF-CEM leukemia): 17.3 nM
TGI (CCRF-CEM leukemia): 63.1 nM
GI50 (COLO 205 colon): 326 nM
TGI (COLO 205 colon): 1440 nM
GI50 (DU-145 prostate): 2090 nM
TGI (DU-145 prostate): 3750 nM
GI50 (EKVX NSCLC): 1300 nM
TGI (EKVX NSCLC): 2750 nM
GI50 (HCC-2998 colon): 1400 nM
TGI (HCC-2998 colon): 3320 nM
GI50 (HCT-116 colon): 226 nM
TGI (HCT-116 colon): 517 nM
GI50 (HCT-15 colon): 290 nM
TGI (HCT-15 colon): 819 nM
GI50 (HL-60(TB) leukemia): 530 nM
TGI (HL-60(TB) leukemia): 1400 nM
GI50 (HOP-62 NSCLC): 2330 nM
TGI (HOP-62 NSCLC): 5610 nM
GI50 (HOP-92 NSCLC): 1240 nM
TGI (HOP-92 NSCLC): 2550 nM
GI50 (HS 578T breast): 896 nM
TGI (HS 578T breast): 3660 nM
GI50 (HT29 colon): 235 nM
TGI (HT29 colon): 612 nM
GI50 (IGROV1 ovarian): 374 nM
TGI (IGROV1 ovarian): 1410 nM
GI50 (K-562 leukemia): 67.6 nM
TGI (K-562 leukemia): 333 nM
GI50 (KM12 colon): 1570 nM
TGI (KM12 colon): 3120 nM
GI50 (LOX IMVI melanoma): 1580 nM
TGI (LOX IMVI melanoma): 3310 nM
GI50 (M14 melanoma): 516 nM
TGI (M14 melanoma): 1860 nM
GI50 (MALME-3M melanoma): 377 nM
TGI (MALME-3M melanoma): 1380 nM
GI50 (MCF7 breast): 265 nM
TGI (MCF7 breast): 1360 nM
GI50 (MDA-MB-231 breast): 445 nM
TGI (MDA-MB-231 breast): 1700 nM
GI50 (MDA-MB-435): 301 nM
TGI (MDA-MB-435): 1100 nM
GI50 (MDA-N): 340 nM
TGI (MDA-N): 1160 nM
GI50 (MOLT-4 leukemia): 40.1 nM
TGI (MOLT-4 leukemia): 194 nM
GI50 (NCI-H23 lung): 277 nM
TGI (NCI-H23 lung): 1010 nM
GI50 (NCI-H460 lung): 1090 nM
TGI (NCI-H460 lung): 2560 nM
GI50 (NCI-H522 lung): 247 nM
TGI (NCI-H522 lung): 762 nM
GI50 (NCI/ADR-RES ovarian): 607 nM
TGI (NCI/ADR-RES ovarian): 3740 nM
GI50 (OVCAR-3 ovarian): 255 nM
TGI (OVCAR-3 ovarian): 720 nM
GI50 (OVCAR-4 ovarian): 667 nM
TGI (OVCAR-4 ovarian): 2150 nM
GI50 (OVCAR-5 ovarian): 1500 nM
TGI (OVCAR-5 ovarian): 2930 nM
GI50 (OVCAR-8 ovarian): 451 nM
TGI (OVCAR-8 ovarian): 2620 nM
GI50 (PC-3 prostate): 706 nM
TGI (PC-3 prostate): 1840 nM
GI50 (RPMI-8226 leukemia): 83 nM
TGI (RPMI-8226 leukemia): 335 nM
GI50 (RXF 393 renal): 1350 nM
TGI (RXF 393 renal): 3170 nM
GI50 (SF-268 CNS): 806 nM
TGI (SF-268 CNS): 2840 nM
GI50 (SF-295 CNS): 1560 nM
TGI (SF-295 CNS): 2970 nM
GI50 (SF-539 CNS): 421 nM
TGI (SF-539 CNS): 1540 nM
GI50 (SK-MEL-28 melanoma): 591 nM
TGI (SK-MEL-28 melanoma): 1490 nM
GI50 (SK-MEL-5 melanoma): 739 nM
TGI (SK-MEL-5 melanoma): 1960 nM
GI50 (SK-OV-3 ovarian): 1910 nM
TGI (SK-OV-3 ovarian): 3560 nM
GI50 (SN12C renal): 317 nM
TGI (SN12C renal): 1030 nM
GI50 (SNB-19 CNS): 1810 nM
TGI (SNB-19 CNS): 3510 nM
GI50 (SNB-75 CNS): 1360 nM
TGI (SNB-75 CNS): 2790 nM
GI50 (SR leukemia): 31.7 nM
TGI (SR leukemia): 133 nM
GI50 (SW-620 colon): 178 nM
TGI (SW-620 colon): 933 nM
GI50 (T-47D breast): 564 nM
TGI (T-47D breast): 1710 nM
GI50 (TK-10 renal): 821 nM
TGI (TK-10 renal): 1930 nM
GI50 (U251 CNS): 1410 nM
TGI (U251 CNS): 2740 nM
GI50 (UACC-257 melanoma): 814 nM
TGI (UACC-257 melanoma): 2170 nM
GI50 (UACC-62 melanoma): 1820 nM
TGI (UACC-62 melanoma): 3830 nM
GI50 (UO-31 renal): 957 nM
TGI (UO-31 renal): 2130 nM
